Data reported in US20070249555A1, “Use of Atp Analogues for Treatment of Cardiovascular Diseases” (INSTITUT NATIONAL DE LA SANTE ET DE LA RECHERCHE MEDICALE …, priority 2004, published 2007).

Test system: liver of P2Y1-/- C57BL/6J mice
Assay: in situ TG-HDL2 endocytosis by perfused liver of P2Y1-/- mouse
Type: in vivo
Settings: liver perfused in situ 10 min at 37° C., AR-C69931MX 10 μM
Protocol: FIG. 4C: The liver from P2Y1^−/−C57BL/6J male mice (25 weeks old) was perfused in situ for 10 minutes at 37° C. in HBSS medium with 75 μg/ml of ^125I-TG-HDL2 in the presence of PBS (a) or AR-C69931MX 10 μM (b). ^125I radioactivity associated with the livers was determined (n>3); (*) (p<0.05) (unpaired t-test).
The perfused mouse liver experiments were carried out on C57BL/6J male mice, 8 weeks old, (Charles River Cie) or P2Y1^−/− mouse, 25 weeks old. Mouse were anesthetized by intraperitoneal injections of 200 μl ketamine hydrochloride (Merial)-xylazine hydrochloride 2% (Bayer)-PBS (1:1:3 v/v). […] The livers were perfused in situ for 10 minutes at 37° C. in HBSS medium containing 75 μg/ml of ^125I-TG-HDL2 (5000 cpm/ng of proteins) or ^3H-cholesteryl-ether-TG-HDL2 (15000 dpm/mg of cholesteryl ester), with PBS apolipoprotein A-1 (ApoA-1, 10 μg/ml) or AR-C69931MX (10 μM).
Livers were extensively washed at 4° C. in PBS and radioactivity associated per […] of liver was counted, (n=7 per group). Values represent means ±SEM, with p<0.05 (unpaired t-test).

CSCCNc1nc(SCCC(F)(F)F)nc2c1ncn2[C@@H]1O[C@H](COP(=O)(O)OP(=O)(O)C(Cl)(Cl)P(=O)(O)O)[C@@H](O)[C@H]1O [AR-C69931MX, N-[2-(methylthio)ethyl]-2-[(3,3,3-trifluoropropyl)thio]-5′-adenylic acid, monoanhydride with dichloromethylenebisphosphonic acid]
increase of TG-HDL2 internalization by the liver above the control: 38%
